The source of these data is patent US20100204460A1, “NATURAL BRASSINOSTEROIDS FOR USE FOR TREATING HYPERPROLIFERATION, TREATING PROLIFERATIVE DISEASES AND REDUCING ADVERSE EFFECTS OF STEROID DYSFUNCTION IN MAMMALS, PHARMACEUTICAL COMPOSITION AND ITS USE” (priority 2007, published 2010).

Holding throughout (assay type): cell-based
For one assay, the system named is MCF-7 cells. The experiment in a line: BrdU incorporation assay, MCF-7. The protocol:
To analyze if the inhibition in cell viability was due to decreased cell proliferation, we measured DNA synthesis in the presence of BRs. The effect of brassinosteroids 9 or 6 on cell proliferation and DNA replication of the cancer cells was measured by BrdU incorporation assay. This immunostaining was based on nuclear incorporation of bromodeoxyuridine (BrdU) into DNA in place of thymidine during the S-phase of cell cycle detected by anti-specific-BrdU antibody following membrane permeabilization as described previously (Gratzner, Science. 1982, 218, 474-475). […] The BrdU reagent (0.1 mM; Sigma, MO, USA) was added in culture medium with cells for 4 h in a CO2 incubator at 37° C. After incubation the cells were washed three times with PBS and fixed with cold acetone-methanol (1:1, v/v) for 10 min. The cells were denaturated by HCl (1:5; Lachema, Czech Republic) and incubated with anti-specific-BrdU antibody (diluted 1:100 in PBS; clone Bu20a, DakoCytomation, Denmark) for 60 min in the dark. The cells were then washed three times in PBS (10 mM, pH 7.4) and incubated with goat anti-mouse fluorescein isothiocyanate (FITC)-labeled secondary antibody (Sigma, MO, USA) for 60 min in the dark. The cells were then washed three times in PBS and incubated with DAPI (50 μg/mL; Sigma, MO, USA) for 10 min in the dark. The coverslips with cells were washed in deionized water and mounted on glass slides, using the hydrophilic medium Mowiol (Calbiochem, Calif., USA) in glycerol-PBS (1:3, v/v) for fluorescence. Cells were visualized using microscopy and those incorporating BrdU (S phase cells) were counted in at least 25 fields and compared with the total number of all cells.
(Dividing cells build labelled thymidine or BrdU into new DNA.)

Assay [1] relates to LNCaP cells. The experiment in a line: TUNEL detection of apoptosis, LNCaP. Particulars: IC50 concentration. The protocol:
TdT-Mediated dUTP nick end labeling (TUNEL) detection of apoptosis index. For detection of apoptotic cells, the TUNEL assay was used. […] After period of treatment, the cells were washed with PBS and fixed on the slides with cold acetone-methanol (1:1, v/v) for 10 min. Apoptosis-induced nuclear DNA fragmentation was detected by terminal deoxynucleotidyl transferase-mediated UTP nick end labeling (TUNEL) technique according to the producer protocol (In Situ Cell Death Detection Kit; Roche Diagnostics, Mannheim, Germany). The cells were then washed three times in PBS and stained with 4′-6-diamidino-2-phenylindole (DAPI; 50 μg/ml; Sigma, St. Louis, Mo., USA) for 10 min in the dark. The coverslips with cells were washed in deionized water and mounted on glass slides, using the hydrophilic medium Mowiol (Calbiochem, Fremont, Calif., USA) in glycerol-PBS (1:3, v/v) for fluorescence. Cells were visualized using fluorescence microscopy and compared with control cells. TUNEL staining achieved to confirm apoptosis in all cell lines.

The next assay deals with MDA-MB-468 cells. As to the kind of experiment: Western blot of cell cycle and apoptosis related proteins, MDA-MB-468. Particulars: for expression of apoptosis related proteins (Bcl-2 family, caspase-3 activation) (Western blot) / p21Waf1/Cip1 expression (Western blot) / p27Kip1 expression (Western blot): IC50 for 6, 12, 24 h vs untreated control; for retinoblastoma protein (Rb) expression, phosphorylated and dephosphorylated forms (Western blot): vs untreated control. The protocol: (§1) The cells were seeded in a density 1.6×10^4 cells/cm^2 (LNCaP), 1.4×10^4 cells/cm^2 (DU-145, MDA-MB-468 and MCF-7) using culture medium in 100-mm culture Petri dishes. After reaching of 70-80% confluence, the cells were treated with tested compounds 9 in concentration IC50 that were evaluated by MTT analysis described above. DMSO was used as a vehicle for controls. After 6, 12 and 24 h treatment, the cells were washed with cold PBS and scraped in ice-cold protein extract ion buffer (50 mM HEPES, pH 7.5; 150 mM NaCl; 1 mM EDTA; 2.5 mM EGTA; 10% glycerol; 0.1% Tween 20) with protease and phosphatase inhibitors (25 μL/mL phenylmethanesulphonyl fluoride; 2.5 μL/mL leupeptin; 0.1 mM Na3VO4; 2.5 μL/mL aprotinin; 10 mM β-glycerol-phosphate; 1 mM dithiothreitol). The lysates were collected into microfuge tube and incubated on ice for 1 h. Cells were incubated 60 min at 4° C. under time by time shaking in protein extraction buffer. After centrifugation at 45 000×g for 30 min at 4° C., supernatant was collected, aliquoted, and stored at −80° C. The protein content in the lysates was measured by a Bredford assay (Bio-Rad Laboratories, Hercules, Calif., USA) according to the manufacture's protocol.
(§2) For Western blot analysis, equal aliquots of proteins (15-30 μg/well) were loaded on 10% or 12% SDS-PAGE gels and transferred onto nitrocellulose membranes (Amersham Biosciences, Vienna, Austria) by semi-dry electrophoretic transfer. Coloured marker (Rainbow™, Amersham Biosciences, Vienna, Austria) was used as a protein molecular weight standard. The non-specific binding sites were blocked by incubating the blot with 5% (w/v) non-fat dry milk in PBS for 2 h. The blot was incubated overnight in 4° C. with appropriate primary antibody that detects the protein epitope of interest and finally washed in PBS with 0.1% Tween 20 for 1 h. The blot was incubated with the diluted secondary goat anti-mouse IgG-horseradish peroxidase conjugated antibody (dilution 1:6000, Santa Cruz Biotechnology, Santa Cruz, Calif., USA) or goat anti-rabbit IgG-horseradish peroxidase conjugated antibody (dilution 1:2000, DakoCytomation, Glostrup, Denmark) for 45 min in 4° C. The membrane was washed in PBS with 0.1% Tween 20 for 1 h. The proteins were detected using a chemiluminescence detection system (Amersham Biosciences, Vienna, Austria) according to the protocol provided by the manufacturer. Equality of loaded proteins was confirmed by Ponceau S membrane staining (Sigma, St. Louis, Mo., USA) and by detection of anti-tubulin-α or anti-mcm-7 antibodies. The experiments were repeated three times. The protein expressions in treated cells were compared to untreated controls.
(§3) Western blot analysis was used to detect changes in apoptosis related protein expression in breast and prostate cancer cell lines. […] This decreased expression of Bid can indicate a cleavage of the protein after treatment by BRs. In DU-145 cell line, expression of pro-apoptotic proteins Bax and Bid was unchanged. […] On the other hand, caspase cleavage was not found in DU-145 cells. Poly-(ADP-ribose) polymerase (PARP) positive expression in controls of prostate cancer cell lines was observed but brassinosteroids had no effect on its expression nor on its degradation within the period 6/12/24 h (FIG. 6B).

In assay [2] the test system is LNCaP cells. As to the kind of experiment: Western blot of cell cycle and apoptosis related proteins, LNCaP. Particulars: IC50 for 6, 12, 24 h vs untreated control. How it is done:
as §1, §2, §3
(In western blotting, separated proteins are transferred to a membrane and probed.)

Where [3] appears, read: treated at IC50 for 6 h, control 50 ± 3.6.
Setting [4] is: treated at IC50 for 12 h, control 53 ± 3.5.
Where [5] appears, read: treated at IC50 for 24 h, control 69 ± 4.5.

Each structure is given as a SMILES string. Several values for one entry are separate records, joined by “and”; a condition that tells them apart may be missing. Identical values can stand only once. Entries after “also recorded” stand apart in the source; their conditions may differ.

For `CC[C@@H](C(C)C)[C@@H](O)[C@H](O)[C@@H](C)[C@H]1CC[C@H]2[C@@H]3CC(=O)[C@H]4C[C@H](O)[C@H](O)C[C@]4(C)[C@H]3CC[C@]12C` [Brassinosteroid 9, 28-Homocastasterone], the “percentage of proliferating BrdU positive cells” value with MCF-7 cells (setting [3]) stood at 46 ± 2.5%. Further, the “percentage of proliferating BrdU positive cells” value with MCF-7 cells (setting [4]) turned out to be 31 ± 3.8 %. In addition, in the assay on MCF-7 cells (setting [5]), the “percentage of proliferating BrdU positive cells” value is listed as 29±4.0%. For the same molecule, the “percentage of TUNEL positive cells” value with LNCaP cells [1] (6 h, control 0.3 ± 0.6) is given as 7.3 ± 2.1 %. Further, in the assay on LNCaP cells [1] (12 h, control 0.6 ± 0.6), the “percentage of TUNEL positive cells” value was 15.7 ± 2.5 %. Besides, the “percentage of TUNEL positive cells” value in the assay on LNCaP cells [1] (24 h, control 0.6 ± 0.6) was 25.8% and 25.8 ± 2.5 %. In addition, in the assay on MDA-MB-468 cells, the “expression of apoptosis related proteins (Bcl-2 family, caspase-3 activation) (Western blot)” value is “no significant changes in expression of Bcl-2 family protein nor caspase-3 activation”; the “p21Waf1/Cip1 expression (Western blot)” value is “no significant changes”; the “p27Kip1 expression (Western blot)” value is given as “no significant changes”; the “retinoblastoma protein (Rb) expression, phosphorylated and dephosphorylated forms (Western blot)” value is on record as “decreased”. In the assay with LNCaP cells [2], the “MDM-2 expression (Western blot)” value is “increased after 9 treatment (6 h)”; the “anti-apoptotic protein Bcl-2 expression (Western blot)” value is “decreased after treatment with 9 (6, 12 and 24 h); also recorded: significant decrease in the levels of anti-apoptotic Bcl-2 protein”; the “caspase-3 cleavage / activation (Western blot)” value was “induced degradation of caspase-3 into its cleaved fragments after all time points (6, 12 and 24 h); also recorded: degradation of procaspase-3 into cleaved fragments was detected after all time points”; the “p21Waf1/Cip1 expression (Western blot)” value is listed as “decreased level of p21^Waf1/Cip1 after 12 h”. Further, in the assay on LNCaP cells [2], the “p27Kip1 expression (Western blot)” value is recorded as “increased level of p27^Kip1 after 24 h”; the “p53 expression (Western blot)” value is “decreased expression of p53 after brassinosteroids 9 or 6 treatment was found after 12 and 24 h”; the “pro-apoptotic Bax level (Western blot)” value is “increased level of pro-apoptotic Bax after the 9 treatment after 6 and 12 h; also recorded: increase in the pro-apoptotic Bax protein”.

Turning to `CC(C)[C@@H](C)[C@@H](O)[C@H](O)[C@@H](C)[C@H]1CC[C@H]2[C@@H]3COC(=O)[C@H]4C[C@H](O)[C@H](O)C[C@]4(C)[C@H]3CC[C@]12C` [Brassinosteroid 6, 24-Epibrassinolide], the “percentage of proliferating BrdU positive cells” value with MCF-7 cells (setting [3]) came out at 42 ± 3.2%. For the same molecule, the “percentage of proliferating BrdU positive cells” value in the assay on MCF-7 cells (setting [4]) is 40 ± 7.1%. For the same molecule, the “percentage of proliferating BrdU positive cells” value in the assay with MCF-7 cells (setting [5]) is 36 ± 5.5 %. Further, the “percentage of TUNEL positive cells” value with LNCaP cells [1] (6 h, control 0.3 ± 0.6) was 10.7 ± 4.0 %. Moreover, the “percentage of TUNEL positive cells” value in the assay on LNCaP cells [1] (12 h, control 0.6 ± 0.6) is given as 12.2 ± 5.1 %. Moreover, in the assay on LNCaP cells [1] (24 h, control 0.6 ± 0.6), the “percentage of TUNEL positive cells” value was 21.9% and 21.9 ± 3.0 %. Moreover, the “cyclin D1 expression (Western blot)” value in the assay on MDA-MB-468 cells (6/12/24 h vs untreated control) is on record as “decreased expression of cyclin D1”. In addition, in the assay with MDA-MB-468 cells, the “expression of apoptosis related proteins (Bcl-2 family, caspase-3 activation) (Western blot)” value is recorded as “no significant changes in expression of Bcl-2 family protein nor caspase-3 activation”; the “p21Waf1/Cip1 expression (Western blot)” value was “significantly increased after 12 and 24 h”; the “p27Kip1 expression (Western blot)” value is “decreased in all time points”; the “retinoblastoma protein (Rb) expression, phosphorylated and dephosphorylated forms (Western blot)” value was “decreased”. Further, in the assay with LNCaP cells [2], the “MDM-2 expression (Western blot)” value is given as “unchanged”; the “anti-apoptotic protein Bcl-2 expression (Western blot)” value is “decreased after treatment with 9 (6, 12 and 24 h) or 6 (6 and 24 h)”; the “caspase-3 cleavage / activation (Western blot)” value was “activation of caspase-3 after 24 h; also recorded: degradation of procaspase-3 into cleaved fragments was detected after all time points of treatment with 9 and after 24 h treatment with 6”; the “p21Waf1/Cip1 expression (Western blot)” value is “decreased expression of p21^Waf1/Cip1 after 6 and 24 h”. In the assay on LNCaP cells [2], the “p27Kip1 expression (Western blot)” value is “decreased expression of p21^Waf1/Cip1 after 6 and 24 h treatment and p27^Kip1 protein expression after 6 and 12 h”; the “p53 expression (Western blot)” value is “decreased expression of p53 after brassinosteroids 9 or 6 treatment was found after 12 and 24 h”.
